Results as given in patent US20240279215A1 (Cytokinetics, Incorporated, priority 2022, published 2024).

The molecules below were run against human NAMPT (Homo sapiens (Human), UniProt P43490) (assay: NMN fluorescence biochemical assay (human recombinant NAMPT enzyme assay)).
Chain of human NAMPT (P43490 whole entry): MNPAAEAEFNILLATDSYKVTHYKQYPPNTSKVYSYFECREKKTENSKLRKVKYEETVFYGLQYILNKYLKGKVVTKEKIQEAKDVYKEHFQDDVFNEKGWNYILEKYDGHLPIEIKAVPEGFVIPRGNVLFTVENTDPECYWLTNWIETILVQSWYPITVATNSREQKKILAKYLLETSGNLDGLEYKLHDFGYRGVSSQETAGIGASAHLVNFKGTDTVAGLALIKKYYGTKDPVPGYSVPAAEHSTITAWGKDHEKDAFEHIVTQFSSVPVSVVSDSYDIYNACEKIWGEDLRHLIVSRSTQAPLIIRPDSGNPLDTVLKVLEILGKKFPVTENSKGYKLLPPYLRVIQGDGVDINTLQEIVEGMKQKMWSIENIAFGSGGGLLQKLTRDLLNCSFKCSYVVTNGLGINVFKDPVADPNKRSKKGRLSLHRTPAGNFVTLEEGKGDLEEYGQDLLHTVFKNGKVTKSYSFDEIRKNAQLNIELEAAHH
In short: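 NMN formed was detected by fluorescence (Ex/Em 355/460 nm) after acetophenone, KOH and formic acid derivatization. The cell-free reaction ran 60 min at ambient temperature with 6 nM human NAMPT, 150 μM nicotinamide, 20 μM PRPP, 2.5 mM ATP, pH 7.2 HEPES, and compound dose responses.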
`CN(C)S(=O)(=O)N1CCC[C@H](c2ccc(NC(=O)OCc3cnco3)cc2)C1` [Compound 366, oxazol-5-ylmethyl (R)-(4-(1-(N,N-dimethylsulfamoyl)piperidin-3-yl)phenyl)carbamate] was tested, and the “AC1.4 Human” value was 0.15 µM and the EC50 was 10.2 µM.
For `CCC(=O)N1CCC2(CC(Cc3ccc(NC(=O)OCc4cnco4)cc3F)C2)C1` (stereo not drawn) [Compound 367, oxazol-5-ylmethyl (3-fluoro-4-((6-propionyl-6-azaspiro[3.4]octan-2-yl)methyl)phenyl)carbamate], the “AC1.4 Human” value was 0.07 µM and the EC50 was 4.77 µM.
`CC(C)C(=O)N1CCC2(CC(Cc3ccc(NC(=O)OCc4cnco4)cc3F)C2)C1` (stereo not drawn) [Compound 368, oxazol-5-ylmethyl (3-fluoro-4-((6-isobutyryl-6-azaspiro[3.4]octan-2-yl)methyl)phenyl)carbamate] was tested, and the “AC1.4 Human” value was 0.09 µM and the EC50 was 2.93 µM.
`CCS(=O)(=O)N1CCC2(CC(Cc3ccc(NC(=O)OCc4cnco4)cc3F)C2)C1` (stereo not drawn) [Compound 369, oxazol-5-ylmethyl (3-fluoro-4-((6-(ethylsulfonyl)-6-azaspiro[3.4]octan-2-yl)methyl)phenyl)carbamate] was tested, and the “AC1.4 Human” value was 0.16 µM and the EC50 was 4.36 µM.
For `CS(=O)(=O)N1CCC2(CC(Cc3ccc(NC(=O)OCc4cnco4)cc3F)C2)C1` (stereo not drawn) [Compound 370, oxazol-5-ylmethyl (3-fluoro-4-((6-(methylsulfonyl)-6-azaspiro[3.4]octan-2-yl)methyl)phenyl)carbamate], the “AC1.4 Human” value was 0.13 µM and the EC50 was 5.8 µM.
For `COC(=O)N1CCC2(CC(Cc3ccc(NC(=O)OCc4cnco4)cc3F)C2)C1` (stereo not drawn) [Compound 371, methyl 2-(2-fluoro-4-(((oxazol-5-ylmethoxy)carbonyl)amino)benzyl)-6-azaspiro[3.4]octane-6-carboxylate], the “AC1.4 Human” value was 0.27 µM and the EC50 was 4.57 µM.
`CC(=O)N1CCC2(CC(Cc3ccc(NC(=O)OCc4cnco4)cc3F)C2)C1` (stereo not drawn) [Compound 374, oxazol-5-ylmethyl (4-((6-acetyl-6-azaspiro[3.4]octan-2-yl)methyl)-3-fluorophenyl)carbamate] was tested, and the “AC1.4 Human” value was 0.08 µM and the EC50 was 4.17 µM.
For `CC(=O)N1CCC[C@H](c2ccc(NC(=O)OCc3cnco3)cc2)C1` [Compound 375, oxazol-5-ylmethyl (R)-(4-(1-acetylpiperidin-3-yl)phenyl)carbamate], the “AC1.4 Human” value was 1.32 µM and the EC50 was 53.8 µM.
`CC(C)(C)OC(=O)N1CCC2(CC(Cc3ccc(NC(=O)OCc4cnco4)cc3F)C2)C1` (stereo not drawn) [Compound 377, tert-butyl 2-(2-fluoro-4-(((oxazol-5-ylmethoxy)carbonyl)amino)benzyl)-6-azaspiro[3.4]octane-6-carboxylate] was tested, and the “AC1.4 Human” value was 1.08 µM and the EC50 was 9.37 µM.
With `O=C(Nc1ccc(CC2CC3(CCNC3)C2)c(F)c1)OCc1cnco1` (stereo not drawn) [Compound 378, oxazol-5-ylmethyl (4-((6-azaspiro[3.4]octan-2-yl)methyl)-3-fluorophenyl)carbamate] the “AC1.4 Human” value was 0.38 µM and the EC50 was 18.6 µM.
With `CN(C)C(=O)N1CCC2(CC(Cc3ccc(NC(=O)OCc4cnco4)cc3F)C2)C1` (stereo not drawn) [Compound 379, oxazol-5-ylmethyl (4-((6-(dimethylcarbamoyl)-6-azaspiro[3.4]octan-2-yl)methyl)-3-fluorophenyl)carbamate] the “AC1.4 Human” value was 0.12 µM and the EC50 was 2.96 µM.
In the case of `O=C(Nc1ccc([C@@H]2CCCN(C3COC3)C2)cc1)OCc1cnco1` [Compound 380, oxazol-5-ylmethyl (S)-(4-(1-(oxetan-3-yl)piperidin-3-yl)phenyl)carbamate], the “AC1.4 Human” value is reported as 0.84 µM and the EC50 is reported as 41.5 µM.
For `CC(=O)N1CCC[C@@H](c2ccc(NC(=O)OCc3cnco3)cc2)C1` [Compound 381, oxazol-5-ylmethyl (S)-(4-(1-acetylpiperidin-3-yl)phenyl)carbamate], the “AC1.4 Human” value was 3.37 µM and the EC50 was 17 µM.
For `CS(=O)(=O)N1CCC[C@@H](c2ccc(NC(=O)OCc3cnco3)cc2)C1` [Compound 382, oxazol-5-ylmethyl (S)-(4-(1-(methylsulfonyl)piperidin-3-yl)phenyl)carbamate], the “AC1.4 Human” value was 0.35 µM and the EC50 was 22.4 µM.
With `COC(=O)N1CCC[C@@H](c2ccc(NC(=O)OCc3cnco3)cc2)C1` [Compound 383, methyl (S)-3-(4-(((oxazol-5-ylmethoxy)carbonyl)amino)phenyl)piperidine-1-carboxylate] the “AC1.4 Human” value was 2.58 µM and the EC50 was 20.3 µM.
`CN(C)S(=O)(=O)N1CCC[C@@H](c2ccc(NC(=O)OCc3cnco3)cc2)C1` [Compound 384, oxazol-5-ylmethyl (S)-(4-(1-(N,N-dimethylsulfamoyl)piperidin-3-yl)phenyl)carbamate] was tested, and the “AC1.4 Human” value was 0.24 µM and the EC50 was 23.3 µM.
With `CN(C)C(=O)N1CCC[C@@H](c2ccc(NC(=O)OCc3cnco3)cc2)C1` [Compound 385, oxazol-5-ylmethyl (S)-(4-(1-(dimethylcarbamoyl)piperidin-3-yl)phenyl)carbamate] the “AC1.4 Human” value was 1.69 µM and the EC50 was 20.8 µM.
`CCS(=O)(=O)N1CC2(CC(Cc3ccc(NC(=O)OCc4cnco4)cc3F)C2)C1` [Compound 386, oxazol-5-ylmethyl (4-((2-(ethylsulfonyl)-2-azaspiro[3.3]heptan-6-yl)methyl)-3-fluorophenyl)carbamate] was tested, and the “AC1.4 Human” value was 0.14 µM and the EC50 was 14.1 µM.
For `CN(C)S(=O)(=O)N1CC2(CC(c3ccc(NC(=O)OCc4cnco4)cc3F)C2)C1` [Compound 387, oxazol-5-ylmethyl (4-(2-(N,N-dimethylsulfamoyl)-2-azaspiro[3.3]heptan-6-yl)-3-fluorophenyl)carbamate], the “AC1.4 Human” value was 0.08 µM and the EC50 was 2.76 µM.
With `CS(=O)(=O)N1CC2(CC(c3ccc(NC(=O)OCc4cnco4)cc3F)C2)C1` [Compound 388, oxazol-5-ylmethyl (3-fluoro-4-(2-(methylsulfonyl)-2-azaspiro[3.3]heptan-6-yl)phenyl)carbamate] the “AC1.4 Human” value was 0.13 µM and the EC50 was 10.2 µM.
With `O=C(Nc1ccc(CC2CC3CCC(C2)N3C(=O)N2CCOCC2)cc1)OCc1cnco1` (stereo not drawn) [Compound 389, oxazol-5-ylmethyl (4-((8-(morpholine-4-carbonyl)-8-azabicyclo[3.2.1]octan-3-yl)methyl)phenyl)carbamate] the “AC1.4 Human” value was 0.09 µM and the EC50 was 3.75 µM.
In the case of `O=C(Nc1ccc(CC2CC3CCC(C2)N3C(=O)N2CCCCC2)cc1)OCc1cnco1` (stereo not drawn) [Compound 390, oxazol-5-ylmethyl (4-((8-(piperidine-1-carbonyl)-8-azabicyclo[3.2.1]octan-3-yl)methyl)phenyl)carbamate], the “AC1.4 Human” value is reported as 0.13 µM and the EC50 is reported as 1.8 µM.
In the case of `O=C(Nc1ccc(CC2CC3CCC(C2)N3C(=O)N2CCCC2)cc1)OCc1cnco1` (stereo not drawn) [Compound 391, oxazol-5-ylmethyl (4-((8-(pyrrolidine-1-carbonyl)-8-azabicyclo[3.2.1]octan-3-yl)methyl)phenyl)carbamate], the “AC1.4 Human” value is reported as 0.05 µM and the EC50 is reported as 5.5 µM.
In the case of `O=C(Nc1ccc(CC2CC3CCC(C2)N3C(=O)N2CCC2)cc1)OCc1cnco1` (stereo not drawn) [Compound 392, oxazol-5-ylmethyl (4-((8-(azetidine-1-carbonyl)-8-azabicyclo[3.2.1]octan-3-yl)methyl)phenyl)carbamate], the “AC1.4 Human” value is reported as 0.13 µM and the EC50 is reported as 6.9 µM.
For `O=C(Nc1ccc(CC2CC3CCC(C2)N3S(=O)(=O)N2CCC2)cc1)OCc1cnco1` (stereo not drawn) [Compound 393, oxazol-5-ylmethyl (4-((8-(azetidin-1-ylsulfonyl)-8-azabicyclo[3.2.1]octan-3-yl)methyl)phenyl)carbamate], the “AC1.4 Human” value was 0.13 µM and the EC50 was 3.84 µM.
In the case of `O=C(Nc1ccc(CC2CC3CCC(C2)N3S(=O)(=O)C2CCC2)cc1)OCc1cnco1` (stereo not drawn) [Compound 394, oxazol-5-ylmethyl (4-((8-(cyclobutylsulfonyl)-8-azabicyclo[3.2.1]octan-3-yl)methyl)phenyl)carbamate], the “AC1.4 Human” value is reported as 0.19 µM and the EC50 is reported as 4.62 µM.
For `COC(=O)N1CC2(CC(Cc3ccc(NC(=O)OCc4cnco4)cc3F)C2)C1` [Compound 396, methyl 6-(2-fluoro-4-(((oxazol-5-ylmethoxy)carbonyl)amino)benzyl)-2-azaspiro[3.3]heptane-2-carboxylate], the “AC1.4 Human” value was 0.11 µM and the EC50 was 6.78 µM.
With `O=C(Nc1ccc(CC2CC3(C2)CN(C2COC2)C3)c(F)c1)OCc1cnco1` [Compound 397, oxazol-5-ylmethyl (3-fluoro-4-((2-(oxetan-3-yl)-2-azaspiro[3.3]heptan-6-yl)methyl)phenyl)carbamate] the “AC1.4 Human” value was 0.98 µM and the EC50 was 42.6 µM.
For `CN(C)C(=O)N1CC2(CC(Cc3ccc(NC(=O)OCc4cnco4)cc3F)C2)C1` [Compound 398, oxazol-5-ylmethyl (4-((2-(dimethylcarbamoyl)-2-azaspiro[3.3]heptan-6-yl)methyl)-3-fluorophenyl)carbamate], the “AC1.4 Human” value was 0.08 µM and the EC50 was 3.29 µM.
With `CC(=O)N1CC2(CC(c3ccc(NC(=O)OCc4cnco4)cc3F)C2)C1` [Compound 401, oxazol-5-ylmethyl (4-(2-acetyl-2-azaspiro[3.3]heptan-6-yl)-3-fluorophenyl)carbamate] the “AC1.4 Human” value was 0.04 µM and the EC50 was 3.37 µM.
For `CCC(=O)N1CC2(CC(Cc3ccc(NC(=O)OCc4cnco4)cc3F)C2)C1` [Compound 402, oxazol-5-ylmethyl (3-fluoro-4-((2-propionyl-2-azaspiro[3.3]heptan-6-yl)methyl)phenyl)carbamate], the “AC1.4 Human” value was 0.07 µM and the EC50 was 12.4 µM.
For `CC(C)C(=O)N1CC2(CC(Cc3ccc(NC(=O)OCc4cnco4)cc3F)C2)C1` [Compound 403, oxazol-5-ylmethyl (3-fluoro-4-((2-isobutyryl-2-azaspiro[3.3]heptan-6-yl)methyl)phenyl)carbamate], the “AC1.4 Human” value was 0.15 µM and the EC50 was 7.47 µM.
For `CS(=O)(=O)N1CC2(CC(Cc3ccc(NC(=O)OCc4cnco4)cc3F)C2)C1` [Compound 404, oxazol-5-ylmethyl (3-fluoro-4-((2-(methylsulfonyl)-2-azaspiro[3.3]heptan-6-yl)methyl)phenyl)carbamate], the “AC1.4 Human” value was 0.10 µM and the EC50 was 14.3 µM.
